From ChEMBL document CHEMBL4431337, “Synthesis and bioactivities of novel pyrazole oxime derivatives containing a 1,2,3-thiadiazole moiety” (Bioorg Med Chem Lett, 2016)

Key:
Plutella xylostella [1] = assay: Insecticidal activity against Plutella xylostella assessed as mortality at 200 ug/ml pre-incubated with cabbage leaves for 2 to 3 secs and measured 48 hrs post dose by leaf disc assay; type: functional; details: foliar
Plutella xylostella [2] = assay: Insecticidal activity against Plutella xylostella assessed as mortality at 100 ug/ml pre-incubated with cabbage leaves for 2 to 3 secs and measured 48 hrs post dose by leaf disc assay; type: functional; details: foliar
Aphis craccivora [3] = assay: Insecticidal activity against Aphis craccivora assessed as mortality at 200 ug/ml pre-incubated with horsebean shoot with aphids for 2 secs and measured 48 hrs post dose by foliar application method; type: functional
Tetranychus cinnabarinus [4] = assay: Acaricidal activity against Tetranychus cinnabarinus assessed as mortality at 200 ug/ml pre-incubated with mite-infested Sieva bean plants for 3 secs and measured 48 hrs post dose; type: functional
PANC-1 = assay: Cytotoxicity against human PANC1 cells assessed as inhibition of cell growth after 48 hrs by MTT assay; type: functional, cell-based; details: PANC-1, 48 h
Huh-7 = assay: Cytotoxicity against human HuH7 cells assessed as inhibition of cell growth after 48 hrs by MTT assay; type: functional, cell-based; details: Huh-7, 48 h
HCT-116 = assay: Cytotoxicity against human HCT116 cells assessed as inhibition of cell growth after 48 hrs by MTT assay; type: functional, cell-based; details: HCT-116, 48 h
SGC-7901 = assay: Cytotoxicity against human SGC7901 cells assessed as inhibition of cell growth after 48 hrs by MTT assay; type: functional, cell-based; details: SGC-7901, 48 h
Aphis craccivora [5] = assay: Insecticidal activity against Aphis craccivora assessed as mortality at 100 ug/ml pre-incubated with horsebean shoot with aphids for 2 secs and measured 48 hrs post dose by foliar application method; type: functional
Aphis craccivora [6] = assay: Insecticidal activity against Aphis craccivora assessed as mortality at 50 ug/ml pre-incubated with horsebean shoot with aphids for 2 secs and measured 48 hrs post dose by foliar application method; type: functional
Plutella xylostella [7] = assay: Insecticidal activity against Plutella xylostella assessed as mortality at 50 ug/ml pre-incubated with cabbage leaves for 2 to 3 secs and measured 48 hrs post dose by leaf disc assay; type: functional; details: foliar
Tetranychus cinnabarinus [8] = assay: Acaricidal activity against Tetranychus cinnabarinus assessed as mortality at 100 ug/ml pre-incubated with mite-infested Sieva bean plants for 3 secs and measured 48 hrs post dose; type: functional
Tetranychus cinnabarinus [9] = assay: Acaricidal activity against Tetranychus cinnabarinus assessed as mortality at 50 ug/ml pre-incubated with mite-infested Sieva bean plants for 3 secs and measured 48 hrs post dose; type: functional

SMILES | mortality at 200 µg/mL (Plutella xylostella [1]) [%] | mortality at 100 µg/mL (Plutella xylostella [2]) [%] | mortality at 200 µg/mL (Aphis craccivora [3]) [%] | mortality at 200 µg/mL (Tetranychus cinnabarinus [4]) [%] | IC50 (PANC-1) [µM] | IC50 (Huh-7) [µM] | IC50 (HCT-116) [µM] | IC50 (SGC-7901) [µM] | mortality at 100 µg/mL (Aphis craccivora [5]) [%] | mortality at 50 µg/mL (Aphis craccivora [6]) [%] | mortality at 50 µg/mL (Plutella xylostella [7]) [%] | mortality at 100 µg/mL (Tetranychus cinnabarinus [8]) [%] | mortality at 50 µg/mL (Tetranychus cinnabarinus [9]) [%]
Cc1nnsc1CO/N=C/c1c(C)nn(C)c1Oc1cccc(F)c1F | 100 | 0 | 19 | 0 | 12.2 | 10.2 | 6.56 | 25.7 |  |  |  |  | 
O=[N+]([O-])/N=C1\NCCN1Cc1ccc(Cl)nc1 [IMIDACLOPRID] |  |  | 100 |  |  |  |  |  | 100 | 100 |  |  | 
Cc1nnsc1CO/N=C/c1c(C)nn(C)c1Oc1ccc(I)cc1 | 64 | 62 | 95 | 90 | > 50 | > 50 | 43.8 | > 50 | 70 | 41 | 60 | 60 | 0
CCc1nnsc1CO/N=C/c1c(C)nn(C)c1Cl | 0 |  | 0 | 0 | > 50 | > 50 | > 50 | > 50 |  |  |  |  | 
Cc1nnsc1CO/N=C/c1c(C)nn(C)c1Oc1cc(F)cc(F)c1 | 100 | 0 | 90 | 0 | > 50 | > 50 | 8.12 | 9.41 | 75 | 45 |  |  | 
CCCc1nnsc1CO/N=C/c1c(C)nn(C)c1Cl | 0 |  | 0 | 0 | > 50 | > 50 | > 50 | > 50 |  |  |  |  | 
Cc1nnsc1CO/N=C/c1c(C)nn(C)c1Oc1ccccc1Cl | 100 | 0 | 15 | 0 | > 50 | > 50 | 42.5 | > 50 |  |  |  |  | 
CCCc1nnsc1CO/N=C/c1c(C)nn(C)c1Oc1ccc(F)cc1 | 0 |  | 0 | 0 | > 50 | > 50 | 7.06 | 8.64 |  |  |  |  | 
CCc1nnsc1CO/N=C/c1c(C)nn(C)c1Oc1ccc(C)cc1 | 0 |  | 0 | 0 | > 50 | > 50 | > 50 | 19.8 |  |  |  |  | 
CCCc1nnsc1CO/N=C/c1c(C)nn(C)c1Oc1ccccc1Cl | 0 |  | 0 | 0 | > 50 | > 50 | 16.4 | 17.6 |  |  |  |  | 
Cc1nn(C)c(Oc2ccccc2)c1/C=N/OCc1ccc(C(=O)OC(C)(C)C)cc1 [FENPYROXYMATE] |  |  |  | 100 |  |  |  |  |  |  |  | 100 | 100
Cc1cccc(Oc2c(/C=N/OCc3snnc3C)c(C)nn2C)c1 | 84 | 0 | 90 | 0 | > 50 | > 50 | 14.1 | 12.8 | 70 | 38 |  |  | 
Cc1nnsc1CO/N=C/c1c(C)nn(C)c1Oc1cccc(F)c1 | 71 | 0 | 98 | 80 | > 50 | > 50 | > 50 | > 50 | 80 | 52 |  | 50 | 0
CNC(=O)c1cc(Oc2ccc(NC(=O)Nc3ccc(Cl)c(C(F)(F)F)c3)cc2)ccn1 [SORAFENIB] |  |  |  |  | 11.5 |  |  |  |  |  |  |  | 
Cc1nnsc1CO/N=C/c1c(C)nn(C)c1Oc1ccc(C(C)(C)C)cc1 | 100 | 0 | 95 | 0 | > 50 | > 50 | 33.5 | > 50 | 80 | 50 |  |  | 
CCc1nnsc1CO/N=C/c1c(C)nn(C)c1Oc1ccc(OC(F)(F)F)cc1 | 0 |  | 0 | 0 | > 50 | > 50 | 12.5 | 13.6 |  |  |  |  | 
FC(F)(F)c1ccc(OCCCOc2c(Cl)cc(OCC=C(Cl)Cl)cc2Cl)nc1 [PYRIDALYL] | 100 | 100 |  |  |  |  |  |  |  |  | 100 |  | 
Cc1nnsc1CO/N=C/c1c(C)nn(C)c1Oc1cccc(C(F)(F)F)c1 | 45 |  | 62 | 0 | > 50 | > 50 | 10.3 | 12.4 | 55 | 31 |  |  | 
Cc1nnsc1CO/N=C/c1c(C)nn(C)c1Oc1ccc(Br)cc1 | 100 | 80 | 20 | 0 | 12.8 | 11.8 | 7.19 | 15.2 |  |  | 43 |  | 
CCc1nnsc1CO/N=C/c1c(C)nn(C)c1Oc1ccccc1Cl | 0 |  | 0 | 0 | > 50 | > 50 | 17.6 | 15.8 |  |  |  |  | 
O=c1[nH]cc(F)c(=O)[nH]1 [FLUOROURACIL] |  |  |  |  |  |  | 29.5 | 56.1 |  |  |  |  | 
Cc1nnsc1CO/N=C/c1c(C)nn(C)c1Oc1ccc(F)cc1 | 100 | 0 | 99 | 0 | > 50 | > 50 | 30.2 | > 50 | 90 | 60 |  |  | 
CCCc1nnsc1CO/N=C/c1c(C)nn(C)c1Oc1ccc(Cl)cc1 | 0 |  | 0 | 0 | > 50 | > 50 | 19.2 | 18.6 |  |  |  |  | 
Cc1nnsc1CO/N=C/c1c(C)nn(C)c1Cl | 100 | 0 | 100 | 0 | 26.6 | > 50 | > 50 | > 50 | 85 | 61 |  |  | 
Cc1ccc(Oc2c(/C=N/OCc3snnc3C)c(C)nn2C)cc1 | 100 | 0 | 100 | 0 | > 50 | > 50 | 13.8 | 12.8 | 90 | 58 |  |  | 
Cc1nnsc1CO/N=C/c1c(C)nn(C)c1Oc1ccccc1OC(F)(F)F | 66 | 0 | 22 | 0 | > 50 | > 50 | > 50 | > 50 |  |  |  |  | 
CCCc1nnsc1CO/N=C/c1c(C)nn(C)c1Oc1ccccc1C | 0 |  | 0 | 0 | > 50 | > 50 | 15.7 | 16.3 |  |  |  |  | 
Cc1nnsc1CO/N=C/c1c(C)nn(C)c1Oc1ccc(OC(F)(F)F)cc1 | 50 | 0 | 100 | 80 | > 50 | > 50 | 12.8 | 11.5 | 85 | 59 |  |  | 
